Like-named read-outs stand apart in the source and are kept apart here.
What was measured:
Assay type in all cases: biochemical
heparin = assay: Neutralization of heparin in plasma by Polybrene in the FIFTA
Procedure: P-Pool supplemented with 0-80 IU/ml heparin was analyzed in the FIFTA. The FIFTA-reagent contained 200 mIU/ml thrombin, 6% BSA-PBS and 0, 50, 100, 200, 400, 800, or 1600 μg/ml Polybrene® (PB, hexadimethrinebromide).
25 μl 0-75 mg/ml Polybrene® in aqua dest. were added to 50 μl P-Pool or to 50 μl P-Pool, that had been supplemented with 100 IU/ml heparin. Then 100 μl 200 miU/ml thrombin in 6% BSA-PBS, 400 μg/ml PB were added and the increase in absorbance at 405 nm was determined.
50 μl P-Pool with 0-80 IU/ml heparin were incubated with 100 μl FIFTA-reagent without thrombin, that contained 0, 400, 800, or 1600 μg/ml PB. The increase in absorbance at 405 nm was determined.

fibrinogen [1] = biological target: T1, fibrinogen (Homo sapiens, UniProt P02671+P02675+P02679); assay: FIFTA of chloramine-T oxidized / EDTA-supplemented plasma
T1 construct: pooled patient plasma (P-Pool, n=32 single plasmas); from tissue; host or cells: pooled citrated patient plasma (P-Pool, Fbgen-Pool-Plasma)
T1 sequence (P02671 20-644 isoform P02671-2 limits assumed): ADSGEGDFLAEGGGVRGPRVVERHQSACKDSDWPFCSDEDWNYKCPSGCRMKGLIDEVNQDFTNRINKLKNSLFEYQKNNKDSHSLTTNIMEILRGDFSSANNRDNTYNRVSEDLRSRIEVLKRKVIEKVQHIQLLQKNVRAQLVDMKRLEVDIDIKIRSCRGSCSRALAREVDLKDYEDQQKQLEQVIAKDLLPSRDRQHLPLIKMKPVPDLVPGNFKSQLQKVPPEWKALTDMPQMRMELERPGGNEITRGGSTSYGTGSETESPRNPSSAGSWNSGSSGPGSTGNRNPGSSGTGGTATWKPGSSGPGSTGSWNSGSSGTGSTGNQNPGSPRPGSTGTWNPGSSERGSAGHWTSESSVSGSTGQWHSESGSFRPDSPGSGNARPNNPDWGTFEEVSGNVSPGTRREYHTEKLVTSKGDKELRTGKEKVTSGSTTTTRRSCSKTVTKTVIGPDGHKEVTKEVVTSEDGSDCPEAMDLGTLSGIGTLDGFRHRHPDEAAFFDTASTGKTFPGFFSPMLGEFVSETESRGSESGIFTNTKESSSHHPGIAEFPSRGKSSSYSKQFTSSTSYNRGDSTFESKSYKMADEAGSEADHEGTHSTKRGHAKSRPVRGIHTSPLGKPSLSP
T1 sequence (P02675 31-491): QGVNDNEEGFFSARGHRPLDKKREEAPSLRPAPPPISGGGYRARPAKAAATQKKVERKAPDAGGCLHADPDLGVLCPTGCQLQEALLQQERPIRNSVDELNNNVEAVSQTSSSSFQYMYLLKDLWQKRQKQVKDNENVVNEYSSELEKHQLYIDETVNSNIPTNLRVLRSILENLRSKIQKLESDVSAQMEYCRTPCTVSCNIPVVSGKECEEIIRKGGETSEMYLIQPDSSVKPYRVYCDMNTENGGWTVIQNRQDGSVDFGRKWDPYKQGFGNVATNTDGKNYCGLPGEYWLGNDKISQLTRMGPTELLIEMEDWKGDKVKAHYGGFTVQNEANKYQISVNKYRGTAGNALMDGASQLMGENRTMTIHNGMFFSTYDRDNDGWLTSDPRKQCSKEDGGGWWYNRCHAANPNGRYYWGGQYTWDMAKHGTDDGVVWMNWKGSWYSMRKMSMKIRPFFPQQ
T1 sequence (P02679 27-437 isoform P02679-2 limits assumed): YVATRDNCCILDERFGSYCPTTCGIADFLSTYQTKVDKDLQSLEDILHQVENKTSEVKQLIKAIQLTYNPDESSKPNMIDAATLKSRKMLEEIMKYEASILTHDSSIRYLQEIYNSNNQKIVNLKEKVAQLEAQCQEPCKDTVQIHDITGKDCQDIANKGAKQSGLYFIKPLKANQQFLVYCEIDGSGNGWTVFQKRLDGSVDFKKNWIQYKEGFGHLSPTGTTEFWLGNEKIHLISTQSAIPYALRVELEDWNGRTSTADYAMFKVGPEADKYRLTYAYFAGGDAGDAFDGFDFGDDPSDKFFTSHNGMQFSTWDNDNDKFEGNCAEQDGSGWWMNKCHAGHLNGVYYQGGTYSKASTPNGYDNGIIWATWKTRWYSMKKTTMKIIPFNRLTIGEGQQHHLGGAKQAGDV
Procedure: The absorption at 405 nm is immediately measured (base value) and exactly after 5 min, if the reaction is performed at room temperature (23° C.). If the reaction is performed at 37° C., the second value is measured after 2 min. A microtiterplate reader (Milenia, DPC, Los Angeles, USA) is used. The increase in absorption (ΔA) is determined and the results are standardized against a pooled plasma of known, preferably of 100% of norm, fibrinogen-activity (Table 1).
(§1) 25 μl P-Pool or P-Pool supplemented with 8.6 mM (3.2 g/l) EDTA were incubated with 25 μl 0-89 mM chloramine-T® in PBS for 60 min at RT. Then the FIATA and the FIFTA were performed. For the FIATA, 25 μl PBS were added and the absorbance at 405 nm was determined (base value). 50 μl 4.4 mM vancomycin in PBS were added and after 1 min (RT) the absorbance at 405 nm was determined again (Table 1). […] 100% control=P-Pool without oxidant.
(§2) 25 μl P-Pool was incubated with 25 μl PBS or with 25 μl 2 mM CT in PBS. After 60 min RT, 25 μl 0-172 mM EDTA in PBS was added. After 5 min RT the FIATA and the FIFTA were performed as indicated in 2.7.

fibrinogen [2] = assay: FIATA (vancomycin reactivity) of chloramine-T oxidized / EDTA-supplemented plasma; details: EDTA at concentrations of 50-100 mM
Procedure: To 25 μl plasma 50 μl PBS are added and the absorbance (405 nm) is determined (base value). Then 50 μl 4.4 mM vancomycin in PBS are added. The absorbance at 405 nm is determined after 2 min, if the reaction is performed at room temperature (23° C.). If the reaction is performed at 37° C., the second value is determined after 1 min. A microtiterplate reader (Milenia, DPC, Los Angeles, USA) is used. The increase in absorption (ΔA) is determined and the results are standardized against a pooled plasma of known, preferably of 100% of norm, fibrinogen-concentration, and against 0.9% NaCl (zero-value of turbidity) (Table 2).
as §1, §2

fibrin = biological target: T2, fibrin (Homo sapiens, UniProt P02671+P02675+P02679); assay: Fibrin dissolution by arginine
T2 construct: The FIFTA imitates the physiological conversion of fibrinogen to fibrin; from tissue; host or cells: pooled citrated patient plasma (P-Pool), clotted in the well with thrombin reagent for 30 min
T2 sequence (P02671 36-629 limits assumed): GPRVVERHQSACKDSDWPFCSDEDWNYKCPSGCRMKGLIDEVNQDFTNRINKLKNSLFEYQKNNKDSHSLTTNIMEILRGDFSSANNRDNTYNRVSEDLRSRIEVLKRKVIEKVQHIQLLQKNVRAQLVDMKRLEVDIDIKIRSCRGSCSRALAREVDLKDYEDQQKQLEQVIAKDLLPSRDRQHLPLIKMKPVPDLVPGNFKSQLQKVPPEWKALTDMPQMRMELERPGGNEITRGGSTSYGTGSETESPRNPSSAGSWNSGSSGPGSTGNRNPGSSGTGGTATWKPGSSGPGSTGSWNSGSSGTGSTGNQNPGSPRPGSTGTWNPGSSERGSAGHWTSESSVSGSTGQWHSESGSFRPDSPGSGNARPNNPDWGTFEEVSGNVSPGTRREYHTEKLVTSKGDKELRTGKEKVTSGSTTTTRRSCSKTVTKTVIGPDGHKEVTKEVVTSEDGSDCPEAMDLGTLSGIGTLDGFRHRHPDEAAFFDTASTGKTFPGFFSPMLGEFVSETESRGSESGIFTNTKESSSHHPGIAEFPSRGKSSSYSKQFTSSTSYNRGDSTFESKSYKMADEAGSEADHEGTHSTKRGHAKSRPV
T2 sequence (P02675 45-491 limits assumed): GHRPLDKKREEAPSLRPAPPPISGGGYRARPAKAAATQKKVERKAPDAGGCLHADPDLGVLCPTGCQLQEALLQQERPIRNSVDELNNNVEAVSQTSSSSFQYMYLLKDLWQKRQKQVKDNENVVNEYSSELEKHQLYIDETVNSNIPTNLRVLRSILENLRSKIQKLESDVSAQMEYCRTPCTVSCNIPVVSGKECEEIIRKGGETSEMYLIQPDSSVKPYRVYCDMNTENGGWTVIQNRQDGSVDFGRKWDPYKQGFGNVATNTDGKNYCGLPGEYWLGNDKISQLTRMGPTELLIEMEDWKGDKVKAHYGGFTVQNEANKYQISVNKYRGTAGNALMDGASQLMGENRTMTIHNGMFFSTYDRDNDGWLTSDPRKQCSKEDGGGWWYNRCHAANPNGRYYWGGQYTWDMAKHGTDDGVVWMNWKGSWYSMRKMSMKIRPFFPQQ
T2 sequence (P02679 27-437 isoform P02679-2 limits assumed): T1 sequence (P02679 27-437 isoform P02679-2 limits assumed)
Procedure: 50 μl P-Pool were incubated with 100 μl FIFTA-reagent.

[3] = tested on: thrombin/fibrinogen interaction; assay: Inhibition of fibrin generation by arginine (FIFTA turbidity); details: for IC50: read-out: arginine conc. at halfmaximal turbidity increase
Procedure: The turbidity increase was calculated by subtracting the basal absorbance from the absorbance generated by thrombin (addition of 100 μl FIFTA-reagent without thrombin results into an approximate increase of absorbance of 100 mA compared to the absorbance of 50 μl sample). c) 50 μl P-Pool were incubated with 100 μl FIFTA-reagent.

thrombin = biological target: T3, thrombin (Bos taurus, UniProt P00735); assay: Inhibitory time point 50% (ITP50) of 10 IU/ml heparin-thrombin interaction; details: 133 mIU/ml thrombin, RT
T3 construct: 100 μl 200 mIU/ml thrombin in 6% BSA-PBS (without Polybrene®)
Procedure: 50 μl P-Pool were incubated with 100 μl 200 miU/ml thrombin in 6% BSA-PBS (without Polybrene®). At 0 min (prior to thrombin addition) and 0.5-11 min reaction time (at RT) 10 μl 160 IU/ml heparin in 6% BSA-PBS was added (final heparin conc. in plasma+thrombin reagent=10 IU/ml; this heparin conc. increased the absorbance by 20 mA; all test results were corrected by this heparin induced turbidity increase). The turbidity increase at 405 nm was determined immediately after each heparin addition step and as a function of incubation time.
To determine the heparin addition time point (at RT) that is needed to decrease the 5 min, 10 min, 15 min or 20 min turbidity increase by 50% (inhibitory time point 50%=ITP), 50 μl P-Pool were incubated with 100 μl 200 mIU/ml thrombin in 6% BSA-PBS (without Polybrene®). After 0 s (prior to thrombin addition) and 10-140 s (in 10 s intervals) 10 μl 160 IU/ml heparin in 6% BSA-PBS were added. The turbidity increase at 405 nm as a function of incubation time (3-20 min) was determined.

Q: What does the source list for hexadimethrinebromide [Polybrene®]?
A: plasmatic heparin concentration neutralized (heparin; 400 μg/ml Polybrene in FIFTA-reagent): up to 20 IU/ml; PB needed for neutralization of 1 part of 100 IU/ml heparinized plasma (heparin; 1 part PB, includes 400 μg/ml PB of FIFTA-reagent): 26 mg/mL; PB concentration that completely antagonizes 100 IU/ml heparin (heparin; 25 μl PB added to 50 μl plasma): ≥ 50 mg/mL

Q: For `O=C(O)CN(CCN(CC(=O)O)CC(=O)O)CC(=O)O` [EDTA], which “decrease of FIFTA activity” value (fibrinogen [1]; EDTA at concentrations >5 mmol/l, 0 mM or 2 mM oxidized samples) is on record?
A: about 50%

Q: What about the FIFTA decrease (fibrinogen [1]; addition of 8.6 mM EDTA, independent of oxidant concentration) of the same molecule?
A: about 50%

Q: And the “decrease of FIATA result” value (fibrinogen [2])?
A: 10-20%

Q: Which results are given for `N=C(N)NCCC[C@H](N)C(=O)O` [arginine]?
A: time to halfmaximal decrease of ΔA (fibrin; 477 mM arginine added at 12 min or 30 min reaction time point, RT): 30 min; maximal ΔA that remains refractory to clearing (fibrin; arginine incubation >100 min): about 30%; increase of the turbidity increase ([3]; 16 mM arginine): about 20%; final arginine conc. that completely inhibits turbidity increase ([3]; arginine acts in the first 4 min (RT) of thrombin/fibrinogen interaction): ≥ 250 mM; time window in which arginine can inhibit turbidity increase ([3]; final arginine conc. ≧250 mM, RT (FIG. 16d)): ≤ 3 min; IC50 ([3]; added at the 7 min reaction time point): 94 mM; IC50 ([3]; arginine acts since the begin of thrombin action): 62.5 mM

Q: thrombin was tested. Which “time in which about 50% of plasmatic fibrinogen is converted” value (thrombin) did it give?
A: approximately 30 seconds

Source: patent US7741124B2, “Detection procedures for fibrinogen and/or fibrinogen derivatives” (priority 2003, dated 2010)
